{"source": "patent US9737545B2", "about": "(MERCK SHARP & DOHME CORP., priority 2013, dated 2017)", "target": "T1, wildtype HIV-1 protease (Human immunodeficiency virus type 1 group M subtype B, UniProt P04585)", "T1 construct": "preincubated with the HIV-1 protease (wild type) enzyme in assay buffer; made in house; host or cells: Escherichia coli", "experiment": "Assay for Inhibition of Microbial Expressed HIV Protease (Pepcleav)", "type": "biochemical", "procedure": "Assay for Inhibition of Microbial Expressed HIV Protease (“Pepcleav”)\nStudies of the inhibition of the wildtype HIV-1 protease (which was expressed in Escherichia coli) were carried out with a peptide substrate [Val-Ser-Gln-Asn-(βnaphthyl)Ala-Pro-Ile-Val (SEQ ID NO: 1)]. The inhibitor was first preincubated with the HIV-1 protease (wild type) enzyme in assay buffer (50 mM sodium acetate, pH 5.5, 100 mM NaCl, and 0.1% BSA) for 30 minutes at room temperature. Substrate was added to 400 micromolar in a total volume of 20 microliters containing 20 picomolar HIV-1 protease (final) and the reaction was incubated for 1 hour at 30° C. The reaction was quenched with the addition of formic acid and indinavir to 0.012% and 150 nM final concentrations, respectively. The product formation was determined after separation of product and substrate on a Zorbax Eclipse XDB-C18 column connected to an API 4000 mass spectrometer (Applied Biosystems) with multiple reaction monitoring (transitions were 644.5/428.9 and 615.4/422.2 (M1/M3) for product and indinavir respectively). The extent of inhibition of the reaction was determined from the peak area of the products. Analysis of the products, independently synthesized, provided quantitation standards and confirmation of the product composition.", "data": [{"molecule": "COC(=O)N[C@H](C(=O)Nc1ccccc1CC[C@@H]1CN[C@H](c2nnnn2Cc2ccccc2)CO1)C(c1ccccc1)c1ccccc1", "note": "[Example 39, methyl [(1S)-2-[(2-{2-[(2R,5R)-5-(1-benzyl-1H-tetrazol-5-yl)morpholin-2-yl]ethyl}phenyl)amino]-1-(diphenylmethyl)-2-oxoethyl]carbamate]", "values": [{"measurement": "IC50", "result": 653, "unit": "nM"}]}, {"molecule": "COC(=O)N[C@H](C(=O)Nc1ccccc1CC[C@@H]1CN[C@H](c2nc3ccncc3[nH]2)CO1)C(c1ccccc1)c1ccccc1", "note": "[Example 5, methyl N-[(1S)-1-benzhydryl-2-[[2-[2-[(2R,5R)-5-(3H-imidazo[4,5-c]pyridin-2-yl)morpholin-2-yl]ethyl]phenyl]amino]-2-oxo-ethyl]carbamate]", "values": [{"measurement": "IC50", "result": 7.41, "unit": "nM"}]}, {"molecule": "COC(=O)N[C@H](C(=O)Nc1ccccc1CC[C@@H]1CN[C@H](c2cc3cc(C(F)(F)F)ccc3[nH]2)CO1)C(c1ccccc1)c1ccccc1", "note": "[Example 55]", "values": [{"measurement": "IC50", "result": 152, "unit": "nM"}]}, {"molecule": "COC(=O)N[C@H](C(=O)Nc1ccccc1CC[C@@H]1CN[C@H](c2nc3ccc(C)cc3[nH]2)CO1)C(c1ccccc1)c1ccccc1", "note": "[Example 4, methyl N-[(1S)-1-benzhydryl-2-[[2-[2-[(2R,5R)-5-(6-methyl-1H-benzimidazol-2-yl)morpholin-2-yl]ethyl]phenyl]amino]-2-oxo-ethyl]carbamate]", "values": [{"measurement": "IC50", "result": 0.0923, "unit": "nM"}]}, {"molecule": "COC(=O)N[C@H](C(=O)Nc1ccccc1CC[C@@H]1CN[C@H](c2cc3cccc(Cl)c3[nH]2)CO1)C(c1ccccc1)c1ccccc1", "note": "[Example 59, N-(2-{2-[(2R,5R)-5-(7-chloro-1H-indol-2-yl)morpholin-2-yl]ethyl}phenyl)-Nα-(methoxycarbonyl)-β-phenyl-L-phenylalaninamide]", "values": [{"measurement": "IC50", "result": 96.4, "unit": "nM"}]}, {"molecule": "COC(=O)N[C@H](C(=O)Nc1ccccc1CC[C@@H]1CN[C@H](c2nnc(C)[nH]2)CO1)C(c1ccccc1)c1ccccc1", "note": "[Example 36, Nα-(methoxycarbonyl)-N-[2-(2-{(2R,5R)-5-[(5-methyl-4H-1,2,4-triazol-3-yl)]morpholin-2-yl}ethyl)phenyl]-β-phenyl-L-phenylalaninamide]", "values": [{"measurement": "IC50", "result": 16.5, "unit": "nM"}]}, {"molecule": "COC(=O)N[C@H](C(=O)Nc1ccccc1CC[C@@H]1CN[C@H](c2cnc(C)[nH]2)CO1)C(c1ccccc1)c1ccccc1", "note": "[Example 47, Nα-(methoxycarbonyl)-N-(2-{2-[(2R,5R)-5-(2-methyl-1H-imidazol-5-yl)morpholin-2-yl]ethyl}phenyl)-β-phenyl-L-phenylalaninamide]", "values": [{"measurement": "IC50", "result": 378, "unit": "nM"}]}, {"molecule": "COC(=O)N[C@H](C(=O)Nc1ccccc1CC[C@@H]1CN[C@H](c2csc(C)n2)CO1)C(c1ccccc1)c1ccccc1", "note": "[Example 83]", "values": [{"measurement": "IC50", "result": 89, "unit": "nM"}]}, {"molecule": "COC(=O)N[C@H](C(=O)Nc1cncc(F)c1CC[C@@H]1CN[C@H](c2nc3cc(C)c(C)cc3[nH]2)CO1)C(c1ccc(F)cc1)c1ccc(F)cc1", "note": "[Example 95, N-(4-{2-[(2R,5R)-5-(5,6-dimethyl-1H-benzimidazol-2-yl)morpholin-2-yl]ethyl}-5-fluoropyridin-3-yl)-4-fluoro-β-(4-fluorophenyl)-Nalpha-(methoxycarbonyl)-L-phenylalaninamide]", "values": [{"measurement": "IC50", "result": 0.03, "unit": "nM"}]}, {"molecule": "COC(=O)N[C@H](C(=O)Nc1ccccc1CC[C@@H]1CN[C@H](c2ncc(C)[nH]2)CO1)C(c1ccccc1)c1ccccc1", "note": "[Example 43, methyl {(1S)-1-(diphenylmethyl)-2-[(2-{2-[(2R,5R)-5-(5-methyl-1H-imidazol-2-yl)morpholin-2-yl]ethyl}phenyl)amino]-2-oxoethyl}carbamate]", "values": [{"measurement": "IC50", "result": 1.02, "unit": "nM"}]}, {"molecule": "COC(=O)N[C@H](C(=O)Nc1ccccc1CC[C@@H]1CN[C@H](c2nc3ccc(C#N)cc3[nH]2)CO1)C(c1ccccc1)c1ccccc1", "note": "[Example 10, methyl N-[(1S)-1-benzhydryl-2-[[2-[2-[(2R,5R)-5-(6-cyano-1H-benzimidazol-2-yl)morpholin-2-yl]ethyl]phenyl]amino]-2-oxo-ethyl]carbamate]", "values": [{"measurement": "IC50", "result": 1.59, "unit": "nM"}]}, {"molecule": "COC(=O)N[C@H](C(=O)Nc1ccccc1CC[C@@H]1CN[C@H](c2cc3ccccc3[nH]2)CO1)C(c1ccccc1)c1ccccc1", "note": "[Example 53, N-(2-{2-[(2R,5R)-5-(1H-indol-2-yl)morpholin-2-yl]ethyl}phenyl)-Nα-(methoxycarbonyl)-β-phenyl-L-phenylalaninamide]", "values": [{"measurement": "IC50", "result": 44.4, "unit": "nM"}]}, {"molecule": "COC(=O)N[C@H](C(=O)Nc1ccccc1CC[C@@H]1CN[C@H](c2ncc[nH]2)[C@@H](CSc2nnc(-c3ccncc3)o2)O1)C(c1ccccc1)c1ccccc1", "note": "[Example 87, N-(2-{2-[(2R,5R)-(1H-imidazol-2-yl)-6-{[(5-pyridin 4-yl-1,3,4-oxadiazol-2-yl)sulfanyl]methyl}morpholin-2-yl]ethyl}phenyl)-Nalpha-(methoxycarbonyl)-β-phenyl-L-phenylalaninamide]", "values": [{"measurement": "IC50", "result": 0.6, "unit": "nM"}]}, {"molecule": "COC(=O)N[C@H](C(=O)Nc1ccccc1CC[C@@H]1CN[C@H](c2ncc(-c3ccccc3)[nH]2)CO1)C(c1ccccc1)c1ccccc1", "note": "[Example 45, Nα-(methoxycarbonyl)-β-phenyl-N-(2-{2-[(2R,5R)-5-(5-phenyl-1H-imidazol-2-yl)morpholin-2-yl]ethyl}phenyl)-L-phenylalaninamide]", "values": [{"measurement": "IC50", "result": 0.041, "unit": "nM"}]}, {"molecule": "Cc1cc2nc([C@@H]3CO[C@H](COc4c(F)cccc4NC(=O)C[C@@H](c4ccc(F)cc4)c4cc(F)cc(F)c4)CN3)[nH]c2cc1C", "note": "[Example 104, (3S)-3-(3,5-difluorophenyl)-N-(2-{[(2S,5R)-5-(5,6-dimethyl-1H-benzimidazol-2-yl)morpholin-2-yl]methoxy}-3-fluorophenyl)-3-(4-fluorophenyl) propanamide]", "values": [{"measurement": "IC50", "result": 1.1, "unit": "nM"}]}, {"molecule": "COC(=O)N[C@H](C(=O)Nc1ccccc1CC[C@@H]1CN[C@H](c2nc3cc(F)c(F)cc3[nH]2)CO1)C(c1ccccc1)c1ccccc1", "note": "[Example 16, methyl N-[(1S)-1-benzhydryl-2-[[2-[2-[(2R,5R)-5-(5,6-difluoro-1H-benzimidazol-2-yl)morpholin-2-yl]ethyl]phenyl]amino]-2-oxo-ethyl]carbamate]", "values": [{"measurement": "IC50", "result": 0.0246, "unit": "nM"}]}, {"molecule": "COC(=O)N[C@H](C(=O)Nc1ccccc1CC[C@@H]1CN[C@H](c2nc3c(Br)cc(C)cc3[nH]2)CO1)C(c1ccccc1)c1ccccc1", "note": "[Example 19, methyl N-[(1S)-1-benzhydryl-2-[[2-[2-[(2R,5R)-5-(4-bromo-6-methyl-1H-benzimidazol-2-yl)morpholin-2-yl]ethyl]phenyl]amino]-2-oxo-ethyl]carbamate]", "values": [{"measurement": "IC50", "result": 0.573, "unit": "nM"}]}, {"molecule": "COC(=O)N[C@H](C(=O)Nc1c(CC[C@@H]2CN[C@H](c3nc4cc(C)c(C)cc4[nH]3)CO2)cc[nH]c1=O)C(c1ccccc1)c1ccccc1", "note": "[Example 35, methyl N-[(1S)-1-benzhydryl-2-[[4-[2-[(2R,5R)-5-(5,6-dimethyl-1H-benzimidazol-2-yl)morpholin-2-yl]ethyl]-2-oxo-1H-pyridin-3-yl]amino]-2-oxo-ethyl]carbamate]", "values": [{"measurement": "IC50", "result": 0.159, "unit": "nM"}]}, {"molecule": "COC(=O)N[C@H](C(=O)Nc1ccccc1CC[C@@H]1CN[C@H](c2nnco2)CO1)C(c1ccccc1)c1ccccc1", "note": "[Example 82]", "values": [{"measurement": "IC50", "result": 280, "unit": "nM"}]}, {"molecule": "COC(=O)N[C@H](C(=O)Nc1ccccc1CC[C@@H]1CN[C@H](c2nnn[nH]2)CO1)C(c1ccccc1)c1ccccc1", "note": "[Example 77, Nα-(methoxycarbonyl)-β-phenyl-N-(2-{2-[(2R,5R)-5-(1H-tetrazol-5-yl)morpholin-2-yl]ethyl}phenyl)-L-phenylalaninamide]", "values": [{"measurement": "IC50", "result": 3.5, "unit": "nM"}]}, {"molecule": "Cc1cc2nc([C@@H]3CO[C@H](CCc4c(F)cncc4NC(=O)[C@@H](N)C(c4ccc(F)cc4)c4ccc(F)cc4)CN3)[nH]c2cc1C", "note": "[Example 92, N-(4-{2-[(2R,5R)-5-(5,6-dimethyl-1H-benzimidazol 2-yl)morpholin-2-yl]ethyl}-5-fluoropyridin-3-yl)-4-fluoro-β-(4-fluorophenyl)-L-phenylalaninamide]", "values": [{"measurement": "IC50", "result": 0.06, "unit": "nM"}]}, {"molecule": "COC(=O)N[C@H](C(=O)Nc1ccccc1CC[C@@H]1CN[C@H](c2nnc(C)o2)CO1)C(c1ccccc1)c1ccccc1", "note": "[Example 80]", "values": [{"measurement": "IC50", "result": 220, "unit": "nM"}]}, {"molecule": "COC(=O)N[C@H](C(=O)Nc1cncc(F)c1CC[C@@H]1CN[C@H](c2nc3cc(F)c(F)cc3[nH]2)CO1)C(c1ccc(F)cc1)c1ccc(F)cc1", "note": "[Example 76, N-(4-{2-[(2R,5R)-5-(5,6-difluoro-1H-benzimidazol-2-yl)morpholin-2-yl]ethyl}-5-fluoropyridin-3-yl)-4-fluoro-β-(4-fluorophenyl)-Nα-(methoxycarbonyl)-L-phenylalaninamide]", "values": [{"measurement": "IC50", "result": 0.02, "unit": "nM"}]}, {"molecule": "COC(=O)N[C@H](C(=O)Nc1ccccc1CC[C@@H]1CN[C@H](c2nc3ccccc3[nH]2)CO1)C(c1ccccc1)c1ccccc1", "note": "[Example 1, N-(2-{2-[(2R,5R)-5-(1H-benzimidazol-2-yl)morpholin-2-yl]ethyl}phenyl)-Nα-(methoxycarbonyl)-β-phenyl-L-phenylalaninamide]", "values": [{"measurement": "IC50", "result": 0.0374, "unit": "nM"}]}, {"molecule": "COC(=O)N[C@H](C(=O)Nc1ccccc1CC[C@@H]1CN[C@H](c2nc3ccc(F)cc3[nH]2)CO1)C(c1ccccc1)c1ccccc1", "note": "[Example 18, methyl N-[(1S)-1-benzhydryl-2-[[2-[2-[(2R,5R)-5-(6-fluoro-1H-benzimidazol-2-yl)morpholin-2-yl]ethyl]phenyl]amino]-2-oxo-ethyl]carbamate]", "values": [{"measurement": "IC50", "result": 0.125, "unit": "nM"}]}, {"molecule": "COC(=O)N[C@H](C(=O)Nc1ccccc1CC[C@@H]1CN[C@H](c2nc3cccc(Cl)c3[nH]2)CO1)C(c1ccccc1)c1ccccc1", "note": "[Example 13, methyl N-[(1S)-1-benzhydryl-2-[[2-[2-[(2R,5R)-5-(7-chloro-1H-benzimidazol-2-yl)morpholin-2-yl]ethyl]phenyl]amino]-2-oxo-ethyl]carbamate]", "values": [{"measurement": "IC50", "result": 0.137, "unit": "nM"}]}]}
